Experimental data from ChEMBL document CHEMBL1201862, “PubChem BioAssay data set” (2004).
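Growth conditions: 96-well plates. Treatment: test compound, 48 hours, 5 concentrations. Analysis: linear interpolation between bracketing concentrations; unreached endpoints set to highest concentration. The concentration for 50% growth inhibition is given as GI50.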 Calls of active or inactive are those of the source. Rule as the data show it: active = GI50 up to about 1.1 µM and inactive = higher.

Key:
Assay in all cases: DTP human tumour cell line panel, 48 h
786-0 = test system: 786-0
A498 = test system: A498
A549 = test system: A549
ACHN = test system: ACHN
CAKI-1 = test system: CAKI-1
CCRF-CEM = test system: CCRF-CEM
COLO 205 = test system: COLO 205
DLD-1 = test system: DLD-1
DMS-114 = test system: DMS-114
DMS-273 = test system: DMS-273
EKVX = test system: EKVX
HCC 2998 = test system: HCC 2998
HCT-116 = test system: HCT-116
HCT-15 = test system: HCT-15
HL-60 = test system: HL-60
HOP-18 = test system: HOP-18
HOP-62 = test system: HOP-62
HT-29 = test system: HT-29
IGROV-1 = test system: IGROV-1
K562 = test system: K562
KM-20L2 = test system: KM-20L2
KM12 = test system: KM12
LOX IMVI = test system: LOX IMVI
LXFL 529 = test system: LXFL 529
M14 = test system: M14
M19-MEL = test system: M19-MEL
MOLT-4 = test system: MOLT-4
Malme-3M = test system: Malme-3M
NCI-H226 = test system: NCI-H226
NCI-H23 = test system: NCI-H23
NCI-H460 = test system: NCI-H460
OVCAR-3 = test system: OVCAR-3
OVCAR-4 = test system: OVCAR-4
OVCAR-5 = test system: OVCAR-5
OVCAR-8 = test system: OVCAR-8
RPMI-8226 = test system: RPMI-8226
RXF 631 = test system: RXF 631
SF-268 = test system: SF-268
SF-295 = test system: SF-295
SF-539 = test system: SF-539
SK-MEL-28 = test system: SK-MEL-28
SK-MEL-2 = test system: SK-MEL-2
SK-MEL-5 = test system: SK-MEL-5
SK-OV-3 = test system: SK-OV-3
SN12C = test system: SN12C
SNB-19 = test system: SNB-19
SNB-75 = test system: SNB-75
SNB-78 = test system: SNB-78
SR = test system: SR
SW-620 = test system: SW-620
TK-10 = test system: TK-10
UACC-257 = test system: UACC-257
UACC-62 = test system: UACC-62
UO-31 = test system: UO-31

With `C(/C=C/N1CCCC1)=C\c1nc(N2CCCC2)c2ccccc2n1` as the molecule, how does the GI50 (786-0) read?
Its GI50 is 16.6 µM (inactive).

And the GI50 (A498)?
Its GI50 is > 100 µM (inactive).

What about the GI50 (A549) of the same molecule?
The GI50 was 48.5 µM (inactive).

And the GI50 (ACHN)?
Its GI50 is 16.9 µM (inactive).

And the GI50 (CAKI-1)?
Its GI50 is 19.7 µM (inactive).

And the GI50 (CCRF-CEM)?
The GI50 was 13.2 µM (inactive).

And the GI50 (COLO 205)?
The GI50 was 14.4 µM (inactive).

And the GI50 (DLD-1)?
Its GI50 is 18.7 µM (inactive).

And the GI50 (DMS-114)?
Its GI50 is 18.5 µM (inactive).

And the GI50 (DMS-273)?
The GI50 was 18.4 µM (inactive).

And the GI50 (EKVX)?
The GI50 was 20.1 µM (inactive).

What about the GI50 (HCC 2998) of the same molecule?
The GI50 was 17.4 µM (inactive).

What about the GI50 (HCT-116) of the same molecule?
The GI50 was 19.7 µM (inactive).

And the GI50 (HCT-15)?
The GI50 was 16.4 µM.

And the GI50 (HL-60)?
Its GI50 is 23.4 µM (inactive).

What about the GI50 (HOP-18) of the same molecule?
Its GI50 is 16.5 µM (inactive).

And the GI50 (HOP-62)?
The GI50 was 19.5 µM (inactive).

And the GI50 (HT-29)?
Its GI50 is 20.7 µM (inactive).

What about the GI50 (IGROV-1) of the same molecule?
The GI50 was 21.6 µM (inactive).

What about the GI50 (K562) of the same molecule?
The GI50 was 12.5 µM (inactive).

And the GI50 (KM-20L2)?
The GI50 was 24.9 µM (inactive).

And the GI50 (KM12)?
The GI50 was 17.1 µM (inactive).

And the GI50 (LOX IMVI)?
Its GI50 is 17.5 µM (inactive).

What about the GI50 (LXFL 529) of the same molecule?
Its GI50 is 14.7 µM (inactive).

What about the GI50 (M14) of the same molecule?
The GI50 was 18 µM (inactive).

And the GI50 (M19-MEL)?
Its GI50 is 17 µM (inactive).

What about the GI50 (MOLT-4) of the same molecule?
The GI50 was 17.3 µM (inactive).

What about the GI50 (Malme-3M) of the same molecule?
The GI50 was 18.3 µM (inactive).

And the GI50 (NCI-H226)?
Its GI50 is 16.7 µM (inactive).

And the GI50 (NCI-H23)?
The GI50 was 18.2 µM (inactive).

And the GI50 (NCI-H460)?
The GI50 was 18.2 µM (inactive).

What about the GI50 (OVCAR-3) of the same molecule?
Its GI50 is 15.7 µM (inactive).

What about the GI50 (OVCAR-4) of the same molecule?
The GI50 was 13.9 µM (inactive).

And the GI50 (OVCAR-5)?
Its GI50 is 15.6 µM (inactive).

What about the GI50 (OVCAR-8) of the same molecule?
Its GI50 is 34.1 µM (inactive).

What about the GI50 (RPMI-8226) of the same molecule?
The GI50 was 17.4 µM (inactive).

And the GI50 (RXF 631)?
The GI50 was 7.73 µM (inactive).

What about the GI50 (SF-268) of the same molecule?
Its GI50 is 23.9 µM (inactive).

What about the GI50 (SF-295) of the same molecule?
Its GI50 is 20.4 µM (inactive).

What about the GI50 (SF-539) of the same molecule?
Its GI50 is 18.3 µM (inactive).

What about the GI50 (SK-MEL-28) of the same molecule?
The GI50 was 22.9 µM (inactive).

And the GI50 (SK-MEL-2)?
The GI50 was 22.1 µM (inactive).

And the GI50 (SK-MEL-5)?
Its GI50 is 19.1 µM (inactive).

And the GI50 (SK-OV-3)?
The GI50 was 18.6 µM (inactive).

And the GI50 (SN12C)?
Its GI50 is 13.5 µM (inactive).

What about the GI50 (SNB-19) of the same molecule?
The GI50 was 18.5 µM (inactive).

And the GI50 (SNB-75)?
Its GI50 is 16.6 µM (inactive).

What about the GI50 (SNB-78) of the same molecule?
Its GI50 is 20.7 µM (inactive).

And the GI50 (SR)?
The GI50 was 13.6 µM (inactive).

What about the GI50 (SW-620) of the same molecule?
The GI50 was 14.3 µM (inactive).

And the GI50 (TK-10)?
The GI50 was 41 µM (inactive).

And the GI50 (UACC-257)?
The GI50 was 33.2 µM (inactive).

What about the GI50 (UACC-62) of the same molecule?
The GI50 was 21.2 µM (inactive).

What about the GI50 (UO-31) of the same molecule?
Its GI50 is 15.7 µM (inactive).
